Test system: Sephadex-induced lung edema
Assay: Sephadex-induced lung edema
Format: in vivo, SD rats
Details: Rattus norvegicus; i.t., 24 hrs and 2 hrs prior to Sephadex; read-out: ED50 Lung edema inhibition
Description: Sephadex® G-200 was prepared in sterile saline (10 mg/ml) and allowed to swell for at least 3 days at room temperature. Test compounds were administered intratracheally at 24 hrs and 2 hrs prior to intratracheal administration of Sephadex® (5 mg/kg) under light ether anesthesia. Vehicle control animals were administered vehicle instead of Sephadex®. At 24 hr after Sephadex® instillation, lung and thymus were excised from individual animals and weighed. Wet weights of lungs and thymus were corrected for 100 g of initial body weight. The percentage increase in lung weight caused by Sephadex® and its inhibitions by the compounds, were calculated. The percentage inhibitions of thymus compared to vehicle control group were also calculated

Structure (SMILES): C[C@@H]1CC2C3C[C@H](F)C4=CC(=O)C=C[C@]4(C)[C@@]3(F)[C@@H](O)C[C@]2(C)[C@@]1(OC(=O)c1ccco1)C(=O)SCC#CCOC(=O)CC(C)(C)F (stereo partly drawn) [Formula I, S-[4-(3-Fluoro-3-methylbutyryloxy)but-2-ynyl]6α,9α-difluoro-17α-(furan-2-yl)carbonyloxy-11β-hydroxy-16α-methyl-3-oxoandrosta-1,4-diene-17β-carbothioate]
- ED50: 0.094 mg/kg

— patent US9458187B2, “Methods for treatment of inflammatory conditions using S-[4-(3-fleuro-3-methylbutyryloxy)but-2-ynyl]6α, 9α-difluoro-17α-(furan-2-yl) carbonyloxy-11β-hydroxy-16α-methyl-3-oxoandrosta-1,4-diene-17β-carbothioate” (Sun Pharma Advanced Research Company Limited, priority 2013, dated 2016)
